Source: PMC9697349, “Mouse Pharmacokinetics and In Vitro Metabolism of SH-11037 and SH-11008, Synthetic Homoisoflavonoids for Retinal Neovascularization” (Pharmaceutics, 2022)

Columns and labels:
[1] = Mouse pharmacokinetics, single p.o. dose; format: in vivo; conditions: mice
Experimental: Pharmacokinetic studies were performed with male ICR mice (8 weeks old, 30~35 g) purchased from Koatech Co. (Kyunggi, Korea) as reported previously. Test compounds were dissolved at 1 mg/mL in DMA/Tween 80/20% aqueous HPβCD (10/10/80 vol%) to prepare the dosing solutions. SH-11037 was administered by oral (p.o.) gavage at a dose of 10 mg/kg and a dose volume of 10 mL/kg (equimolar to 6 mg/kg of SH-11008) or intravenously (i.v.) via tail vein injection at a dose of 5 mg/kg and a dose volume of 5 mL/kg (equimolar to 3 mg/kg of SH-11008), respectively. […] Plasma samples were analyzed as described below in Section 2.6.1.
Calibration standards and quality control (QC) samples were prepared by spiking 15 μL of blank plasma with 5 μL of analyte working solution prepared in 50 vol% aqueous CH3CN. […] The lower limit of quantitation of SH-11037 and SH-11008 were 0.24 and 0.48 ng/mL, respectively, with a signal-to-noise ratio based on root mean square noise > 10. […] The precision and accuracy of the analytical method were evaluated with the QC samples prepared in triplicate at 5, 250, and 400 ng/mL for both of SH-11037 and SH-11008: the coefficient of variation (%CV) and the relative error (%RE) were in the ranges of −21.23~5.72% and 1.47~12.30% for SH-11037 and −22.85~4.96% and 1.2~13.8% for SH-11008, respectively. […]

[2] = system: human microvascular retinal endothelial cell proliferation; parameters: method as in PMID 26035340; conditions: less potent than SH-11037; cited from earlier work

plasma levels of SH-11008 ([1]; after single p.o. dose of SH-11008 6 mg/kg, BQL) [ng/mL]	Structure (SMILES)	plasma level of SH-11037 ([1]; throughout the time course after single p.o. dose of SH-11037 10 mg/kg)	inhibitory activity on cell proliferation [2]
	COc1ccc(CC2COc3cc(OC)c(OC)c(OC)c3C2=O)cc1OC(=O)[C@H](Cc1ccccc1)NC(=O)OC(C)(C)C (stereo partly drawn) [SH-11037]	BQL	
< 0.48	COc1ccc(CC2COc3cc(OC)c(OC)c(OC)c3C2=O)cc1O (stereo not drawn) [SH-11008]		good inhibitory activity
